Data reported in PubChem BioAssay AID248 (DTP/NCI, 2004).
“And” between values parts separate entries of the source, which are not always exact repeats. Identical values can stand only once. Toxic doses and inconclusive results are not listed.

System: L1210 leukemia ip in BDF1 mice, survival T/C
Assay: NCI In Vivo Anticancer Drug Screen. Data for tumor model L1210 Leukemia (intraperitoneal) in B6D2F1 (BDF1) mice
Conditions: endpoint: mean survival time, higher = longer survival
How it was run: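 Value reflects the ratio of survival in compound-treated mice to survival in vehicle-treated controls, with both groups carrying the same transplanted tumor.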

[1] = dose: 100.0 mg/kg/injection, schedule: Q01DX001 (ip), vehicle: Klucel (hydroxypropylcellulose) (HPC)
[2] = dose: 200.0 mg/kg/injection, schedule: Q01DX001 (ip), vehicle: Klucel (hydroxypropylcellulose) (HPC)
[3] = dose: 100.0 mg/kg/injection, schedule: Q01DX009 (ip), vehicle: Klucel (hydroxypropylcellulose) (HPC)
[4] = dose: 200.0 mg/kg/injection, schedule: Q01DX009 (ip), vehicle: Klucel (hydroxypropylcellulose) (HPC)
[5] = dose: 100.0 mg/kg/injection, schedule: Q01DX001 (ip), vehicle: saline
[6] = dose: 200.0 mg/kg/injection, schedule: Q01DX001 (ip), vehicle: saline
[7] = dose: 400.0 mg/kg/injection, schedule: Q01DX001 (ip), vehicle: saline
[8] = dose: 100.0 mg/kg/injection, schedule: Q04DX003 (ip), vehicle: Klucel (hydroxypropylcellulose) (HPC)
[9] = dose: 200.0 mg/kg/injection, schedule: Q04DX003 (ip), vehicle: Klucel (hydroxypropylcellulose) (HPC)
[10] = dose: 400.0 mg/kg/injection, schedule: Q01DX009 (ip), vehicle: Klucel (hydroxypropylcellulose) (HPC)
[11] = dose: 400.0 mg/kg/injection, schedule: Q04DX003 (ip), vehicle: Klucel (hydroxypropylcellulose) (HPC)
[12] = dose: 400.0 mg/kg/injection, schedule: Q01DX001 (ip), vehicle: Klucel (hydroxypropylcellulose) (HPC)
[13] = dose: 50.0 mg/kg/injection, schedule: Q01DX001 (ip), vehicle: saline
[14] = dose: 100.0 mg/kg/injection, schedule: Q04DX003 (ip), vehicle: saline
[15] = dose: 50.0 mg/kg/injection, schedule: Q04DX003 (ip), vehicle: saline

SMILES: Cc1ccc(-n2c(O)c(N=Nc3ccc(Cl)cc3)c(=O)n(-c3ccc(Br)cc3)c2=S)cc1
- T/C (dose: 50.0 mg/kg/injection, schedule: Q01DX001 (ip), vehicle: Klucel (hydroxypropylcellulose) (HPC)): 103 % of control
- T/C [1]: 105 % of control
- T/C [2]: 108 % of control

SMILES: COc1ccc(NC(=O)Oc2ccc(Cl)cc2Cl)c(OC)c1
- T/C [3]: 114 % of control
- T/C [4]: 101 % of control

SMILES: Cc1ccc2c(c1)-c1[nH]c3ccccc3c1CS2
- T/C (dose: 100.0 mg/kg/injection, schedule: Q04DX003 (ip), vehicle: acetone): 105 % of control
- T/C (dose: 200.0 mg/kg/injection, schedule: Q04DX003 (ip), vehicle: acetone): 110 % of control

SMILES: Cc1ccc(NC(=S)Nc2cccc(C(F)(F)F)c2)cc1C
- T/C (dose: 87.5 mg/kg/injection, schedule: Q01DX009 (ip), vehicle: Klucel (hydroxypropylcellulose) (HPC)): 101 % of control
- T/C (dose: 175.0 mg/kg/injection, schedule: Q01DX009 (ip), vehicle: Klucel (hydroxypropylcellulose) (HPC)): 98 % of control
- T/C (dose: 350.0 mg/kg/injection, schedule: Q01DX009 (ip), vehicle: Klucel (hydroxypropylcellulose) (HPC)): 102 % of control

SMILES: Cc1nc2c(O)cccc2cc1CO
- T/C [3]: 95 % of control
- T/C [4]: 93 % of control

SMILES: O=S(=O)(c1ccccc1)C1CN=NC1c1ccccc1 (centres undefined)
- T/C (dose: 50.0 mg/kg/injection, schedule: Q01DX009 (ip), vehicle: acetone): 95 % of control
- T/C [5]: 100 % of control
- T/C (dose: 100.0 mg/kg/injection, schedule: Q01DX009 (ip), vehicle: acetone): 93 % of control
- T/C [6]: 94 % of control
- T/C (dose: 200.0 mg/kg/injection, schedule: Q01DX009 (ip), vehicle: acetone): 92 % of control
- T/C [7]: 96 % of control

SMILES: O=C(Nc1ccc(Cl)c(Cl)c1)Oc1ccc(C2CCCCC2)cc1
- T/C [3]: 95 % of control
- T/C [8]: 111 % of control
- T/C [4]: 95 % of control
- T/C [9]: 109 % of control
- T/C [10]: 97 % of control
- T/C [11]: 101 % of control

SMILES: CC1(C)C2CCC1(C)C(NC(=O)N(CCCl)N=O)C2 (centres undefined)
- T/C (dose: 4.0 mg/kg/injection, schedule: Q01DX001 (ip), vehicle: carboxymethylcellulose (CMC)): 98 % of control
- T/C (dose: 9.0 mg/kg/injection, schedule: Q01DX001 (ip), vehicle: carboxymethylcellulose (CMC)): 96 % of control
- T/C (dose: 18.0 mg/kg/injection, schedule: Q01DX001 (ip), vehicle: carboxymethylcellulose (CMC)): 102 % of control
- T/C (dose: 37.0 mg/kg/injection, schedule: Q01DX001 (ip), vehicle: carboxymethylcellulose (CMC)): 112 % of control
- T/C (dose: 75.0 mg/kg/injection, schedule: Q01DX001 (ip), vehicle: carboxymethylcellulose (CMC)): 104 % of control
- T/C (dose: 150.0 mg/kg/injection, schedule: Q01DX001 (ip), vehicle: carboxymethylcellulose (CMC)): 106 % of control
- T/C (dose: 200.0 mg/kg/injection, schedule: Q01DX001 (ip), vehicle: carboxymethylcellulose (CMC)): 115 % of control
- T/C (dose: 500.0 mg/kg/injection, schedule: Q01DX001 (ip), vehicle: carboxymethylcellulose (CMC)): 115 % of control
- T/C (dose: 1000.0 mg/kg/injection, schedule: Q01DX001 (ip), vehicle: carboxymethylcellulose (CMC)): 121 % of control

SMILES: CC(C)=CCC(N)CC=C(C)C
- T/C (dose: 12.5 mg/kg/injection, schedule: Q01DX009 (ip), vehicle: Klucel (hydroxypropylcellulose) (HPC)): 91 % of control
- T/C (dose: 25.0 mg/kg/injection, schedule: Q01DX009 (ip), vehicle: Klucel (hydroxypropylcellulose) (HPC)): 102 % of control
- T/C (dose: 25.0 mg/kg/injection, schedule: Q04DX002 (ip), vehicle: Klucel (hydroxypropylcellulose) (HPC)): 112 % of control
- T/C (dose: 50.0 mg/kg/injection, schedule: Q01DX009 (ip), vehicle: Klucel (hydroxypropylcellulose) (HPC)): 106 % of control
- T/C (dose: 50.0 mg/kg/injection, schedule: Q04DX002 (ip), vehicle: Klucel (hydroxypropylcellulose) (HPC)): 105 % of control

SMILES: Cc1cc(C)c(S(=O)(=O)C(=O)C(=O)NN)c(C)c1
- T/C [1]: 104 % of control
- T/C [8]: 115 % of control
- T/C [2]: 106 % of control
- T/C [9]: 109 % of control
- T/C [12]: 106 % of control
- T/C [11]: 104 % of control

SMILES: Cc1cc(C)c([I+]c2ccccc2C(=O)[O-])c(C)c1
- T/C [13]: 97 % of control
- T/C [5]: 105 % of control
- T/C [6]: 100 % of control
- T/C [7]: 103 % of control

SMILES: CCOc1ccc(Br)cc1/C=C1/NC(=O)NC1=O
- T/C (dose: 100.0 mg/kg/injection, schedule: Q01DX009 (ip), vehicle: saline with Tween-80): 95 % of control
- T/C (dose: 100.0 mg/kg/injection, schedule: Q04DX002 (ip), vehicle: saline with Tween-80): 102 % of control
- T/C (dose: 200.0 mg/kg/injection, schedule: Q01DX009 (ip), vehicle: saline with Tween-80): 101 % of control
- T/C (dose: 200.0 mg/kg/injection, schedule: Q04DX002 (ip), vehicle: saline with Tween-80): 97 % of control
- T/C (dose: 400.0 mg/kg/injection, schedule: Q01DX009 (ip), vehicle: saline with Tween-80): 98 % of control
- T/C (dose: 400.0 mg/kg/injection, schedule: Q04DX002 (ip), vehicle: saline with Tween-80): 97 % of control

SMILES: CNC(=O)Oc1ccccc1NC(=O)OC
- T/C (dose: 25.0 mg/kg/injection, schedule: Q04DX003 (ip), vehicle: saline with Tween-80): 97 % of control
- T/C (dose: 50.0 mg/kg/injection, schedule: Q04DX003 (ip), vehicle: saline with Tween-80): 95 % of control
- T/C (dose: 100.0 mg/kg/injection, schedule: Q04DX003 (ip), vehicle: saline with Tween-80): 92 % of control and 97 % of control

SMILES: CCOC(=O)NN(C(=O)OCC)c1c(N(C)NC(C)=O)nc(N)[nH]c1=O
- T/C [5]: 96 % of control
- T/C [6]: 86 % of control
- T/C [7]: 96 % of control

SMILES: NO
- T/C (dose: 62.5 mg/kg/injection, schedule: Q01DX Z (oral), vehicle: saline): 102 % of control
- T/C (dose: 125.0 mg/kg/injection, schedule: Q01DX Z (oral), vehicle: saline): 104 % of control
- T/C (dose: 250.0 mg/kg/injection, schedule: Q01DX Z (oral), vehicle: saline): 114 % of control

SMILES: c1cc[c]([Sn]([O]B([O][Sn]([c]2ccccc2)([c]2ccccc2)[c]2ccccc2)[O][Sn]([c]2ccccc2)([c]2ccccc2)[c]2ccccc2)([c]2ccccc2)[c]2ccccc2)cc1
- T/C (dose: 5.0 mg/kg/injection, schedule: Q04DX002 (ip), vehicle: saline with Tween-80): 101 % of control
- T/C (dose: 10.0 mg/kg/injection, schedule: Q04DX002 (ip), vehicle: saline with Tween-80): 104 % of control
- T/C (dose: 20.0 mg/kg/injection, schedule: Q04DX002 (ip), vehicle: saline with Tween-80): 101 % of control

SMILES: CC(C)N=Cc1cc(I)cc(I)c1O.CC(C)N=Cc1cc(I)cc(I)c1O.[Co]
- T/C [14]: 88 % of control
- T/C (dose: 200.0 mg/kg/injection, schedule: Q04DX003 (ip), vehicle: saline): 94 % of control
- T/C (dose: 400.0 mg/kg/injection, schedule: Q04DX003 (ip), vehicle: saline): 102 % of control

SMILES: O=C(Cl)c1ccc(C(Cl)(Cl)Cl)cc1
- T/C [8]: 95 % of control
- T/C [9]: 111 % of control
- T/C [11]: 104 % of control

SMILES: CN(C)C(C(N)=O)C(=O)c1ccccc1 (centres undefined)
- T/C [5]: 102 % of control
- T/C [6]: 104 % of control
- T/C [7]: 88 % of control

SMILES: COc1ccc(Cl)cc1NC(=O)c1ccccc1C(=O)O
- T/C [3]: 98 % of control
- T/C [8]: 101 % of control
- T/C [4]: 102 % of control
- T/C [9]: 96 % of control
- T/C [10]: 94 % of control
- T/C [11]: 103 % of control

SMILES: CCOC(=O)C1(C(=O)OCC)CC(=O)c2c(OC)ccc(OC)c2C1
- T/C (dose: 12.5 mg/kg/injection, schedule: Q04DX003 (ip), vehicle: Klucel (hydroxypropylcellulose) (HPC)): 94 % of control
- T/C (dose: 25.0 mg/kg/injection, schedule: Q04DX003 (ip), vehicle: Klucel (hydroxypropylcellulose) (HPC)): 105 % of control
- T/C (dose: 50.0 mg/kg/injection, schedule: Q04DX003 (ip), vehicle: Klucel (hydroxypropylcellulose) (HPC)): 98 % of control
- T/C [1]: 98 % of control
- T/C [8]: 95 % of control
- T/C [2]: 98 % of control
- T/C [9]: 103 % of control
- T/C [12]: 106 % of control
- T/C [11]: 111 % of control

SMILES: Nc1nc(N)c2c(Cl)c(CNc3ccc(C(=O)NC(CC(=O)O)CC(=O)O)cc3)ccc2n1
- T/C (dose: 12.5 mg/kg/injection, schedule: Q04DX003 (ip), vehicle: saline): 157 % of control
- T/C (dose: 25.0 mg/kg/injection, schedule: Q04DX003 (ip), vehicle: saline): 178 % of control
- T/C [15]: 90 % of control

SMILES: O=C(O)/C(=N\Nc1ccccc1)c1ccccc1
- T/C [13]: 107 % of control
- T/C [5]: 96 % of control
- T/C [6]: 110 % of control
- T/C [7]: 90 % of control

SMILES: CC1C[N-]CC(C)C1.[CH-]=C(C)C.[Cl][Pt+2][Cl] (centres undefined)
- T/C [15]: 115 % of control
- T/C [14]: 111 % of control
